The source of these data is US20240299299A1, “COMPOSITIONS AND METHODS FOR INCREASING THE EFFICACY OF IMMUNOTHERAPIES AND VACCINES” (The Regents of the University of Michigan, priority 2021, published 2024).

Data set [1] can be described thus: Encapsulation of DHB-based prodrugs in lipid-based formulation. Particulars: oleic acid, Tween 80, PBS emulsion. The format is physicochemical. The protocol:
The DHB-based prodrugs were synthesized by the Medicinal Chemistry Core in University of Michigan. To prepare the formulation, the prodrug #201 or #905 (4 mg) was added to the mixture of oleic acid (45 μL) and Tween 80 (25 μL) and incubated overnight to equilibrate and allow the prodrug to dissolve. Then an aqueous phase consisting of PBS buffer was added, and the formulation emulsified by ultrasonication with an ultrasonic processor.

The test system of data set [2] is immune checkpoint blockers (ICBs). The conditions noted are these: reported in literature; cited from earlier work.
The subject of data set [3] is OT-I CD8+ T cells. The experiment in a line: Tcf1+CD8+ differentiation of OT-I T cells with metabolites. The format is cell-based, mice. Particulars: day 6. As for the experimental part:
FIG. 3: a) OT-I CD8+ T cells were cultured with different metabolites in vitro as indicated, b,c) shown are the frequency of the Tcf1^+CD8+ T cells and the representative flow cytometry plots on day 6. Data represent the mean±s.e.m. (n=5).
Splenocytes from OT-I mice were obtained aseptically. The cells were cultured in 96-well plates (1×10^5 cells per well). For Tcm differentiation study, cells were activated with SIINFEKL peptide (4×10^−9M) in the presence of various metabolites (arginine: 3 mM; 3-methylhistidine: 3 mM; N-acetylneuraminate: 100 μM; disodium sebacate: 100 μM; DHB: 100 μM; pantothenate: 100 μM; γ-aminobutyric acid: 100 μM; glycerol: 100 μM; AICAR: 100 μM, sodium ferulate: 100 μM) for 3 days. Then cells were washed three times with T-cell medium and further cultured with IL-2 (10 ng ml^−1; PeproTech) in the presence of metabolites for 5 days. The cells were then washed twice and re-activated with SIINFEKL peptide (10 μM) for 2 h. The suspension cells were collected, blocked with CD16/32 antibody and stained with the fixable viability dye eFluor 450, FITC-CD44 rat anti-human/mouse and PE-CD62L monoclonal antibody. To test if the central memory CD8+ T cells differentiation is dependent on dendritic cells, CD8 T cells isolated from the spleen in OT-I mice were incubated in the 96-well plate, which was precoated with anti-hamster IgG antibody. […] (1 μg mL^−1) and IL-2 (100 U mL^−1) were added into each well in the presence of 3-methylhistidine (3 mM), DHB (100 μM), or sodium ferulate (100 μM) for 2 days. Then cells were washed for three times to remove α-CD3/α-CD28 antibodies and further incubated with metabolites and IL-2 (10 ng ml^−1) for 5 days. Thereafter, cells were collected for central memory CD8^+ T cells analysis. For CD8^+ T cells survival study, cells were activated with antigen peptide as above, following with thoroughly washing, and incubation in presence of IL-2 for 2 days. […] Tcf1^+CD8^+, CD44^+CD62L^+CD8^+ and survival (stained with Annexin V-APC and PI) T cells were detected via flow cytometry.

In data set [4] the test system is OT-I CD8+ T cells. The experiment in a line: In vitro central memory (Tcm) differentiation of OT-I CD8+ T cells activated with SIINFEKL peptide and IL-2 with metabolites. The data set is classed as cell-based, mice. The conditions noted are these: day 8; metabolite-supplemented medium (arginine 3 mM, 3-methylhistidine 3 mM, DHB 100 μM, sodium ferulate 100 μM). The protocol: FIG. 2: a) OT-I CD8+ T cells were cultured with different metabolites in vitro as indicated, b,c) shown is the frequency of CD44^+CD62L^+ Tcm CD8+ T cells on day 8. d) OT-I CD8+ T cells were activated with α-CD3/α-CD28 antibodies in presence of metabolites as indicated and shown is the Tcm CD8+ T cells on day 7. Data represent the mean±s.e.m. (n=5).
Splenocytes from OT-I mice were obtained aseptically. The cells were cultured in 96-well plates (1×10^5 cells per well). For Tcm differentiation study, cells were activated with SIINFEKL peptide (4×10^−9M) in the presence of various metabolites (arginine: 3 mM; 3-methylhistidine: 3 mM; N-acetylneuraminate: 100 μM; disodium sebacate: 100 μM; DHB: 100 μM; pantothenate: 100 μM; γ-aminobutyric acid: 100 μM; glycerol: 100 μM; AICAR: 100 μM, sodium ferulate: 100 μM) for 3 days. Then cells were washed three times with T-cell medium and further cultured with IL-2 (10 ng ml^−1; PeproTech) in the presence of metabolites for 5 days. The cells were then washed twice and re-activated with SIINFEKL peptide (10 μM) for 2 h. The suspension cells were collected, blocked with CD16/32 antibody and stained with the fixable viability dye eFluor 450, FITC-CD44 rat anti-human/mouse and PE-CD62L monoclonal antibody. To test if the central memory CD8+ T cells differentiation is dependent on dendritic cells, CD8 T cells isolated from the spleen in OT-I mice were incubated in the 96-well plate, which was precoated with anti-hamster IgG antibody. […] (1 μg mL^−1) and IL-2 (100 U mL^−1) were added into each well in the presence of 3-methylhistidine (3 mM), DHB (100 μM), or sodium ferulate (100 μM) for 2 days. Then cells were washed for three times to remove α-CD3/α-CD28 antibodies and further incubated with metabolites and IL-2 (10 ng ml^−1) for 5 days. Thereafter, cells were collected for central memory CD8^+ T cells analysis. For CD8^+ T cells survival study, cells were activated with antigen peptide as above, following with thoroughly washing, and incubation in presence of IL-2 for 2 days. Metabolites were added during this incubation (arginine: 3 mM, 1 mM; 3-methylhistidine: 3 mM, 1 mM, 500 μM, 100 μM; N-acetylneuraminate: 100 μM; disodium sebacate: 100 μM; DHB: 100 μM, 50 μM, 20 μM; pantothenate: 100 μM; γ-aminobutyric acid: 100 μM; glycerol: 100 μM; AICAR: 100 μM). Then cells were further incubated in absence of both IL-2 and metabolites for 36 h to induce the apoptosis/dead. For Tcf1^+CD8^+ differentiation study, cells were activated with antigen peptide as above, followed by thoroughly washing, and incubation with metabolites in presence of IL-2 for 3 days. […] Tcf1^+CD8^+, CD44^+CD62L^+CD8^+ and survival (stained with Annexin V-APC and PI) T cells were detected via flow cytometry.

Take `CCOC(=O)Oc1ccc(C(=O)OCC)cc1OC(=O)OCC` [Prodrug #905, ethyl 3,4-bis((ethoxycarbonyl)oxy)benzoate]: the “encapsulation in lipid-based dose forms” value in data set [1] was “can be successfully encapsulated”.

On to `CN(CC(=O)O)C(=N)N` [creatine], for which the “efficacy of immune checkpoint blockers (ICBs)” value in data set [2] is “improve the efficacy of immune checkpoint blockers”.

In the case of `CSCC[C@H](N)C(=O)O` [methionine], the “efficacy of immune checkpoint blockers (ICBs)” value in data set [2] is on record as “improve the efficacy of immune checkpoint blockers”.

Consider `COc1cc(/C=C/C(=O)[O-])ccc1O.[Na+]` [sodium ferulate], for which the “frequency of Tcf1+CD8+ T cells” value in the data set on OT-I CD8+ T cells [3] is “increased the frequency”. Besides, in the data set with OT-I CD8+ T cells [4], the “differentiation of CD44+CD62L+ central memory CD8+ T cells” value is “significantly increased the differentiation”.
